Results published in patent US9650339B2, “Inhibitors of histone demethylases” (Gilead Sciences, Inc., priority 2013, dated 2017).

Tests used:
Assay type in all cases: biochemical
[1] = molecular target: T1, KDM3B (JMJD1B) (Homo sapiens, UniProt Q7LBC6); assay: Histone lysine demethylase AlphaLISA assay, KDM3B; conditions: read-out: KDM3B HDME Inhibition IC50
T1 construct: 842-1761; host or cells: Bac (baculovirus system)
T1 sequence (Q7LBC6 842-1761): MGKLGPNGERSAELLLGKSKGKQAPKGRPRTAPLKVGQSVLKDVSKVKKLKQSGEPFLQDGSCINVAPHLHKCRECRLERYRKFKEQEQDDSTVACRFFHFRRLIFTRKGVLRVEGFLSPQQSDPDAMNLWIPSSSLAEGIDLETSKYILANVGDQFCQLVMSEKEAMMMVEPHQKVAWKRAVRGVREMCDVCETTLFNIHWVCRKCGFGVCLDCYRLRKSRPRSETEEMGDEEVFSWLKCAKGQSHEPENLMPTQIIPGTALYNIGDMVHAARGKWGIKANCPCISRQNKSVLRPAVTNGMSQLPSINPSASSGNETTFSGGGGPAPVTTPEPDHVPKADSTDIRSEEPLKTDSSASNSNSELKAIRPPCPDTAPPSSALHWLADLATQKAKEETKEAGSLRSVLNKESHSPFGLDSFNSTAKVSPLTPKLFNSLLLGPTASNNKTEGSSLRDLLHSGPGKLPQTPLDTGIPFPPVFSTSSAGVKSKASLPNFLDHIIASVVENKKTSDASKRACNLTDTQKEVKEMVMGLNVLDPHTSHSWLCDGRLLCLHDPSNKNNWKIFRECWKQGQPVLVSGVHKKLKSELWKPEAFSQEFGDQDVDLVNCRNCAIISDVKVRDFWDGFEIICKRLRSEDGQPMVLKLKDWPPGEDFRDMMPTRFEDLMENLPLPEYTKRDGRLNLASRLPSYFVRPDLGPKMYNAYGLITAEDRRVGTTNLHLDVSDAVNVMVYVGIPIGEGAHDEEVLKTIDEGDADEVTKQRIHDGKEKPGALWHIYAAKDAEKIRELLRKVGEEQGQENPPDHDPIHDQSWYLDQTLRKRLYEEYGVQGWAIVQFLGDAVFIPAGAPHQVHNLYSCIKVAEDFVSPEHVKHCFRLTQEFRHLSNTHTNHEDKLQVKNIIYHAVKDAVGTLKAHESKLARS
Experimental: (§1) Assays are performed analogously to the protocol described by PerkinElmer (Roy et al. PerkinElmer Technical Note: AlphaLISA #12, April 2011)
(§2) Enzymes are dissolved in enzyme buffer and incubated for 10 min before being added to 3% DMSO solutions of compounds in enzyme buffer. Incubated for another 10 minutes, before substrate solution is added and the reaction mixture is incubated at room temperature. 10 μL acceptor beads, suspended in Epigenetic Buffer (Perkin Elmer AL008) from stock, are added and the suspension is incubated in the dark at room temperature, before a suspension of streptavidin donor beads (Perkin Elmer 6760002) in Epigenetic Buffer is added. After incubation at room temperature in the dark the plates are read. […]
(§3) BK9M2: Biotin-ARTKQTAR(KMe2)STGGKAPRKQ-NH2 (AnaSpec 64359) […]
(§4) Substrate Solution: Substrate, 25 μM L-Asc, and 10 μM α-KG in Buffer A.

[2] = molecular target: KDM6A (UTX) (Homo sapiens, UniProt O15550); assay: Histone lysine demethylase AlphaLISA assay, KDM6A; conditions: read-out: KDM6A HDME Inhibition IC50
Method in brief: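 Steps: enzyme equilibrated 10 min in buffer; compounds in 3% DMSO solution added, 10 min; substrate mix added (peptide, 25 μM L-Asc, 10 μM α-KG), room temperature; acceptor beads, then streptavidin donor beads, dark incubations; plate read.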

[3] = molecular target: T2, KDM3A (JMJD1A) (Homo sapiens, UniProt Q9Y4C1); assay: Histone lysine demethylase AlphaLISA assay, KDM3A; conditions: read-out: KDM3 A HDME Inhibition IC50
T2 construct: 2-end; purchased BPS Bioscience, US; host or cells: Bac (baculovirus system)
T2 sequence (Q9Y4C1 2-1321 limits assumed): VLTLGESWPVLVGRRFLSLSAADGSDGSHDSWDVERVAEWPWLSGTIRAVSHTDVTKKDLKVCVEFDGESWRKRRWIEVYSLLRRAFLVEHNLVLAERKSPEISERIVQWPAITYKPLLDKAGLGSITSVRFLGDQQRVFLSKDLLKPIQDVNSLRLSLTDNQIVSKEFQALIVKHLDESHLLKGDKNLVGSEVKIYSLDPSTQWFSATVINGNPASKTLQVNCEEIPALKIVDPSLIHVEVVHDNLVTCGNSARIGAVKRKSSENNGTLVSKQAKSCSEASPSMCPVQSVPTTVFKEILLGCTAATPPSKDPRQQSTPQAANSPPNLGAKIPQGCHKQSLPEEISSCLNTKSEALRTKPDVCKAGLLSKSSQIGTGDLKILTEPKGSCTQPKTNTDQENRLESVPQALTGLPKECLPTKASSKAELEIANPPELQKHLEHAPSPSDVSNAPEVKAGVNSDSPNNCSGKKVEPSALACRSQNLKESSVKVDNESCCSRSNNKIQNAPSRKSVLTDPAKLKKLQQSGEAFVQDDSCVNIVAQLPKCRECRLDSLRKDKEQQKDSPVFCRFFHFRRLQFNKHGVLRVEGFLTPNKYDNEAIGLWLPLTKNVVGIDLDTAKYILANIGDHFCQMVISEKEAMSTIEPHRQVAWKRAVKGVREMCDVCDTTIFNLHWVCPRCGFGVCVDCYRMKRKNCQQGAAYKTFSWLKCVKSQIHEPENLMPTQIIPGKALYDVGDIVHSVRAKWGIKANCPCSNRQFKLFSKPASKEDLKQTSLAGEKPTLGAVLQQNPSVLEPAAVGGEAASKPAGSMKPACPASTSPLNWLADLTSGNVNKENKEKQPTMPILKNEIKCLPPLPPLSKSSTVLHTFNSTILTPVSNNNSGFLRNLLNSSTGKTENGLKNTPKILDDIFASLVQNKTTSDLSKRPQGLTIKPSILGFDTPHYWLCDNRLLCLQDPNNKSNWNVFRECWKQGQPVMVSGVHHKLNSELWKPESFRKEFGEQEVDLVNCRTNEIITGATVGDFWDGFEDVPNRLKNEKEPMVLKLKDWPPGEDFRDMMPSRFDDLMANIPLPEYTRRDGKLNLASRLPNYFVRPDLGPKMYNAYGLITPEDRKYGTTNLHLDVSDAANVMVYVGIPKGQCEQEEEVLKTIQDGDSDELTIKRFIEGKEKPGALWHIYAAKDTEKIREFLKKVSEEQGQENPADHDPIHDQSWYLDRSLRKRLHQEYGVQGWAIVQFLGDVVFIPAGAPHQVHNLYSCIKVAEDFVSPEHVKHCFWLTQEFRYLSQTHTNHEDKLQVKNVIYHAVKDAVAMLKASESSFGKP
Experimental: as §1, §2, §3, §4

Sequence of KDM6A (UTX) (O15550 919-1401): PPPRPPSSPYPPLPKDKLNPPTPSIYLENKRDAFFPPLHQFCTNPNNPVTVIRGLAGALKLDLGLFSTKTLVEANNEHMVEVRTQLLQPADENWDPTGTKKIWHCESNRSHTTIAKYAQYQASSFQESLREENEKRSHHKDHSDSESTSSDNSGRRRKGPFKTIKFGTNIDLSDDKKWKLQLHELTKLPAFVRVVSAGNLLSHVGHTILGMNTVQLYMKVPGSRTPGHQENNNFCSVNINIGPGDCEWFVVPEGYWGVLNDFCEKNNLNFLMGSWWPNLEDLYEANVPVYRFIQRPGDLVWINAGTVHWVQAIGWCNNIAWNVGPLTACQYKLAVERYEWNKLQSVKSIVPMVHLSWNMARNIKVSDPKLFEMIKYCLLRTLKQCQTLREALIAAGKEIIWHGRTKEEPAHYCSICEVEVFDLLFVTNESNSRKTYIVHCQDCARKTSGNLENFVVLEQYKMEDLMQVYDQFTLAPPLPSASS

CCN(CC)CCCCNCc1cc(CNC(=O)C(F)(F)F)ccn1 [Compound 1, N-{[2-({[4-(diethylamino)butyl]-amino}methyl)pyridin-4-yl]methyl}-2,2,2-trifluoroacetamide]
IC50 [1]: > 2500 nM | IC50 [2]: > 2500 nM | IC50 [3]: > 2500 nM

CN(C)CCCNCc1cc(CN)ccn1 [Compound 3, [2-({[3-(dimethylamino)propyl]-amino}methyl)pyridin-4-yl]methanamine]
IC50 [1]: > 2500 nM | IC50 [2]: > 2500 nM

CCN(CCN(C)C)C(=O)CNCc1cc(CN)ccn1 [Compound 4, 2-({[4-(aminomethyl)pyridin-2-yl]methyl}amino)-N-[2-(dimethylamino)ethyl]-N-ethylacetamide]
IC50 [1]: > 2500 nM | IC50 [2]: > 2500 nM | IC50 [3]: > 2500 nM

CCN(CC)CCCCNCc1cc(CN)ccn1 [Compound 5, [2-({[4-(diethylamino)butyl]-amino}methyl)pyridin-4-yl]methanamine]
IC50 [1]: > 2500 nM | IC50 [2]: > 2500 nM | IC50 [3]: > 2500 nM

CCN(CC)CCCCN(Cc1cc(CNC(=O)C(F)(F)F)ccn1)C(=O)C(F)(F)F [Compound 6, N-[4-(diethylamino)butyl]-- 2,2,2-trifluoro-N-({4-[(trifluoroacetamido)-methyl]pyridin-2-yl}methyl)acetamide]
IC50 [1]: > 2500 nM | IC50 [2]: > 2500 nM | IC50 [3]: > 2500 nM

NCc1ccnc(CNCCCCN2CCC2)c1 [Compound 7, [2-({[4-(azetidin-1-yl)butyl]amino}methyl)-pyridin-4-yl]-methanamine]
IC50 [1]: > 2500 nM | IC50 [2]: > 2500 nM | IC50 [3]: > 2500 nM

CN(C)CCCCCNCc1cc(CN)ccn1 [Compound 8, [2-({[5-(dimethylamino)pentyl]-amino}methyl)pyridin-4-yl]methanamine]
IC50 [1]: > 2500 nM | IC50 [2]: > 2500 nM | IC50 [3]: > 2500 nM

COc1ccccc1CN1CCC(NC(=O)CNCc2cc(CN)ccn2)CC1 [Compound 9, 2-({[4-(aminomethyl)pyridin-2-yl]methyl}amino)-N-{1-[(2-methoxyphenyl)methyl]-piperidin-4-yl}acetamide]
IC50 [1]: > 2500 nM | IC50 [2]: > 2500 nM | IC50 [3]: > 2500 nM

CN(C)C(=O)CNCc1cc(CNCC#N)ccn1 [Compound 13, 2-{[(4-{[(cyanomethyl)amino]-methyl}pyridin-2-yl)methyl]amino}-N,N-dimethylacetamide]
IC50 [1]: > 2500 nM | IC50 [2]: > 2500 nM

CN(C)C(=O)CNCc1cc(/C=N\C2CC2)ccn1 [Compound 33]
IC50 [1]: > 2500 nM | IC50 [2]: > 2500 nM

CN(C)CCC/N=C/c1ccnc(CNCCCN(C)C)c1 [Compound 37, [3-(dimethylamino)propyl]-({4-[{[3-(dimethylamino)propyl]-imino}methyl]pyridin-2-yl}methyl)amine]
IC50 [1]: > 2500 nM | IC50 [3]: > 2500 nM

CN(CCCNCc1cc(/C=N/C2CC2)ccn1)Cc1ccccc1 [Compound 41, N-({2-[({3-[benzyl(methyl)amino]-propyl}amino)methyl]-pyridin-4-yl}methylidene)-cyclopropanamine]
IC50 [1]: > 2500 nM | IC50 [2]: > 2500 nM

CCN(CCN(C)C)C(=O)CNCc1cc(/C=N/CCC2CCCCC2)ccn1 [Compound 63, 2-[({4-[[(2-cydohexylethyl)-imino]methyl]pyridin-2-yl}methyl)amino]-N-[2-(dimethylamino)-ethyl]-N-ethylacetamide]
IC50 [1]: > 2500 nM | IC50 [2]: > 2500 nM

CCN(CCN(C)C)C(=O)CNCc1cc(C2OCC(Cc3ccccc3)CN2C(=O)C(F)(F)F)ccn1 (stereo not shown) [Compound 90, 2-[({4-[5-benzyl-3-(trifluoroacetyl)-1,3-oxazinan-2-yl]pyridin-2-yl}methyl)amino]-N-[2-(dimethylamino)-ethyl]-N-ethylacetamide]
IC50 [2]: > 2500 nM

CCN(CCN(C)C)C(=O)CNCc1cc(C2OCC3(CC3)CN2C(=O)C(F)(F)F)ccn1 (stereo not shown) [Compound 91, N-[2--(dimethylamino)-ethyl]-N-ethyl-2-[({4-[7-(trifluoroacetyl)-5-oxa-7-azaspiro[2.5]-octan-6-yl]pyridin-2-yl}methyl)amino]-acetamide]
IC50 [2]: > 2500 nM

CN(Cc1ccccc1F)C(=O)CNCc1cc(/C=N/CCO)ccn1 [Compound 92, N-[(2-fluorophenyl)methyl]-2-[({4-[[(2-hydroxyethyl)imino]-methyl]pyridin-2-yl}methyl)amino]-N-methylacetamide]
IC50 [2]: > 2500 nM

OCC/N=C/c1ccnc(CNCCc2ccccc2OCc2ccccc2)c1 [Compound 93, 2-[({2-[({2-[2-(benzyloxy)phenyl]-ethyl}amino)methyl]-pyridin-4-yl}methylidene)-amino]ethan-1-ol]
IC50 [2]: > 2500 nM

CCN(CCC#N)C(=O)CNCc1cc(/C=N/CCO)ccn1 [Compound 94, N-(2-cyanoethyl)-N-ethyl-2-[({4-[[(2-hydroxyethyl)imino]-methyl]pyridin-2-yl}methyl)amino]-acetamide]
IC50 [2]: > 2500 nM

CC(C)C[C@H](NCc1cc(/C=N/CCO)ccn1)C(=O)N1CCCCC1 [Compound 95, (2S)-2-[({4-[[(2-hydroxyethyl)imino]-methyl]pyridin-2-yl}methyl)amino]-4-methyl-1-(piperidin-1-yl)pentan-1-one]
IC50 [2]: > 2500 nM

CN(C)CCCCCNCc1cc(C=O)ccn1 [Compound 114, 2-({[5-(dimethylamino)-pentyl]amino}methyl)-pyridine-4-carbaldehyde]
IC50 [1]: > 2500 nM | IC50 [3]: > 2500 nM

CCN(CC(C)(C)N(C)C)C(=O)CNCc1cc(C=O)ccn1 [Compound 118, N-[2-(dimethylamino)-2-methylpropyl]-N-ethyl-2-{[(4-formylpyridin-2-yl)methyl]amino}-acetamide]
IC50 [2]: > 2500 nM

CN(CC(=O)N1CCCCC1)Cc1cc(C=O)ccn1 [Compound 120, 2-({methyl[2-oxo-2-(piperidin-1-yl)ethyl]amino}-methyl)pyridine-4-carbaldehyde]
IC50 [2]: > 2500 nM
